The term IC50 denotes the concentration needed to halve the response being measured.

In this test the target is T1, human capsaicin receptor (Homo sapiens, UniProt Q8NER1).
T1 construct: A cDNA encoding full length human capsaicin receptor recited in U.S. Pat. No. 6,482,611 was subcloned in the plasmid pBK-CMV; expressed in transfected cells
T1 sequence (Q8NER1 whole entry): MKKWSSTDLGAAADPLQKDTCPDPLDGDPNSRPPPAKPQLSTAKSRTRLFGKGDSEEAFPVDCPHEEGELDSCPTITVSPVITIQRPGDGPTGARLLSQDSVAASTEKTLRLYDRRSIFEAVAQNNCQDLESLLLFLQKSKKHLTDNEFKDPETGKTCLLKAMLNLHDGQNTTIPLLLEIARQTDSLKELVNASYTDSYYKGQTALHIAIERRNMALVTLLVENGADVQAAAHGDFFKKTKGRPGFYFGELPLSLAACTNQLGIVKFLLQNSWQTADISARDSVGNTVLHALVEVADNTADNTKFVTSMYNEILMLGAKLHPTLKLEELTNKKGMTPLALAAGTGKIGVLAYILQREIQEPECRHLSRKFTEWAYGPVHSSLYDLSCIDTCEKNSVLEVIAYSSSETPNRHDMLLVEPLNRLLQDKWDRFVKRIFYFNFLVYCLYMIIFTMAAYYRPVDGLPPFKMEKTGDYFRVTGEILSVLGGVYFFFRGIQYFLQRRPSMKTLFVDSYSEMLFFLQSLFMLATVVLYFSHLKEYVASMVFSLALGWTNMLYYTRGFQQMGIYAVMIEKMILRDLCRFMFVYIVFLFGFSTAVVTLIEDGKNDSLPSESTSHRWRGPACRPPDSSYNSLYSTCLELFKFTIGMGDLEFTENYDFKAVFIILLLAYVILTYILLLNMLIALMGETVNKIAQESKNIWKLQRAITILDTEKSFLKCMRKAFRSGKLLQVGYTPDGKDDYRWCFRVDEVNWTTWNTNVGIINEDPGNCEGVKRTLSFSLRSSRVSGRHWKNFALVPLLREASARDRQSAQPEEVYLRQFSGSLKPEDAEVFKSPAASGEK
As to the kind of experiment: Calcium mobilization assay (Example 6). The test is classed as cell-based. To be noted: concentration required to provide a 50% decrease in the fluorescence response of cells exposed to one IC50 of capsaicin. The procedure: Human embryonic kidney (HEK293) cells were transfected with the pBK-CMV expression construct encoding the full length human capsaicin receptor using standard methods. The transfected cells were selected for two weeks in media containing G418 (400 μg/ml) to obtain a pool of stably transfected cells. Independent clones were isolated from this pool by limiting dilution to obtain clonal stable cell lines for use in subsequent experiments.
Cells transfected with expression plasmids (as described in Example 4) and thereby expressing human capsaicin receptor are seeded and grown to 70-90% confluency in FALCON black-walled, clear-bottomed 96-well plates (#3904, BECTON-DICKINSON, Franklin Lakes, N.J.). The culture medium is emptied from the 96 well plates and FLUO-3 AM calcium sensitive dye (Molecular Probes, Eugene, Oreg.) is added to each well (dye solution: 1 mg FLUO-3 AM, 440 μL DMSO and 440 μl 20% pluronic acid in DMSO, diluted 1:250 in Krebs-Ringer HEPES (KRH) buffer (25 mM HEPES, 5 mM KCl, 0.96 mM NaH2PO4, 1 mM MgSO4, 2 mM CaCl2, 5 mM glucose, 1 mM probenecid, pH 7.4), 50 μl diluted solution per well). Plates are covered with aluminum foil and incubated at 37° C. for 1-2 hours in an environment containing 5% CO2. After the incubation, the dye is emptied from the plates, and the cells are washed once with KRH buffer, and, resuspended in KRH buffer.
Agonist (e.g., olvanil, capsaicin, or RTX)-induced calcium mobilization is monitored using either FLUOROSKAN ASCENT (Labsystems, Franklin, Mass.) or FLIPR (fluorometric imaging plate reader system, Molecular Devices, Sunnyvale, Calif.) instruments. Varying concentrations of the antagonists ruthenium red or capsazepine (RBI; Natick, Mass.) are added to cells concurrently with agonist (e.g., 25-50 nM capsaicin). For agonist-induced calcium responses, data obtained between 30 and 60 seconds after agonist application are used to generate the IC50 values. KALEIDAGRAPH software (Synergy Software, Reading, Pa.) is used to fit the data to the equation: y=a*(1/(1+(b/x)^c)) to determine the IC50 for the response. In this equation, y is the maximum fluorescence signal, x is the concentration of the agonist or antagonist, a is the Emax, b corresponds to the IC50 value and c is the Hill coefficient.
To measure the ability of a test compound to antagonize (inhibit) the response of cells expressing capsaicin receptors to capsaicin or other vanilloid agonist, the IC50 of capsaicin is first determined. An additional 20 μl of KRH buffer and 1 μl DMSO is added to each well of cells, prepared as described above. 100 μl capsaicin in KRH buffer is automatically transferred by the FLIPR instrument to each well. An 8-point concentration response curve, with final capsaicin concentrations of 1 nM to 3 μM, is used to determine capsaicin IC50.
Test compounds are dissolved in DMSO, diluted in 20 μl KRH buffer so that the final concentration of test compounds in the assay well is between 1 μM and 5 μM, and added to cells prepared as described above. The 96 well plates containing prepared cells and test compounds are incubated in the dark, at room temperature for 0.5 to 6 hours. It is important that the incubation not continue beyond 6 hours. Just prior to determining the fluorescence response, 100 μl capsaicin in KRH buffer at twice the IC50 concentration determined from the concentration response curve is automatically added by the FLIPR instrument to each well of the 96 well plate for a final sample volume of 200 μl and a final capsaicin concentration equal to the IC50. The final concentration of test compounds in the assay wells is between 1 μM and 5 μM. […] Antagonists of the capsaicin receptor decrease this response by at least about 20%, preferably by at least about 50%, and most preferably by at least 80% as compared to matched control. The concentration of antagonist required to provide a 50% decrease is the IC50 for the antagonist, and is preferably below 1 micromolar, 100 nanomolar, 10 nanomolar or 1 nanomolar. […]
Background: Calcium flux is commonly read through the fluorescence of an indicator in the cells.
In the case of `CN(C)CCOCc1cc(Nc2ccc(C(F)(F)F)cc2)c2ccc(-c3ncccc3C(F)(F)F)nc2n1` [Compound 25, 2-{[2-(dimethylamino)ethoxy]methyl}-N-[4-(trifluoromethyl)phenyl]-7-[3-(trifluoromethyl)pyridin-2-yl]-1,8-naphthyridin-4-amine], the half-maximal inhibitory concentration (IC50) is not above 1 µM.
On to `CC(C)(C)c1ccc(Nc2cc(N3CCCCC3)nc3cc(-c4ncccc4C(F)(F)F)ccc23)cc1` [Compound 26, N-(4-tert-butylphenyl)-2-piperidin-1-yl-7-[3-(trifluoromethyl)pyridin-2-yl]quinolin-4-amine], for which the half-inhibitory concentration (IC50) is not above 1 µM.
With `CCCCNc1cc(Nc2ccc(C(C)(C)C)cc2)c2ccc(-c3ncccc3C(F)(F)F)cc2n1` [Compound 27, N~2~-butyl-N~4~-(4-tert-butylphenyl)-7-[3-(trifluoromethyl)pyridin-2-yl]quinoline-2,4-diamine], the IC50 was not above 1 µM.
Turning to `CC(C)(C)c1ccc(Nc2cc(N3CCCC3)nc3cc(-c4ncccc4C(F)(F)F)ccc23)cc1` [Compound 28, N-(4-tert-butylphenyl)-2-pyrrolidin-1-yl-7-[3-(trifluoromethyl)pyridin-2-yl]quinolin-4-amine], the IC50 is not above 1 µM.
As to `CC(C)CCNc1cc(Nc2ccc(C(C)(C)C)cc2)c2ccc(-c3ncccc3C(F)(F)F)cc2n1` [Compound 29, N~4~-(4-tert-butylphenyl)-N~2~-isopentyl-7-[3-(trifluoromethyl)pyridin-2-yl]quinoline-2,4-diamine], the IC50 was not above 1 µM.
Take `CCOc1cc(Nc2ccc(C(C)(C)C)cc2)c2ccc(-c3ncccc3C(F)(F)F)cc2n1` [Compound 30, N-(4-tert-butylphenyl)-2-ethoxy-7-[3-(trifluoromethyl)pyridin-2-yl]quinolin-4-amine]: the 50% inhibitory concentration (IC50) was not above 1 µM.
Consider `Oc1cc(Nc2ccc(C(F)(F)F)cc2)c2ccc(-c3ncccc3C(F)(F)F)nc2n1` [Compound 31, 4-{[4-(trifluoromethyl)phenyl]amino}-7-[3-(trifluoromethyl)pyridin-2-yl]-1,8-naphthyridin-2-ol], for which the IC50 is not above 1 µM.
For the compound `CC(C)CCOc1cc(Nc2ccc(C(C)(C)C)cc2)c2ccc(-c3ncccc3C(F)(F)F)cc2n1` [Compound 32, N-(4-tert-butylphenyl)-2-(isopentyloxy)-7-[3-(trifluoromethyl)pyridin-2-yl]quinolin-4-amine], the IC50 is not above 1 µM.
For `CCCOc1cc(Nc2ccc(C(C)(C)C)cc2)c2ccc(-c3ncccc3C(F)(F)F)cc2n1` [Compound 33, N-(4-tert-butylphenyl)-2-propoxy-7-[3-(trifluoromethyl)pyridin-2-yl]quinolin-4-amine], the IC50 is not above 1 µM.
In the case of `FC(F)(F)c1ccc(Nc2cc(Cl)nc3nc(-c4ncccc4C(F)(F)F)ccc23)cc1` [Compound 34, 2-chloro-N-[4-(trifluoromethyl)phenyl]-7-[3-(trifluoromethyl)pyridin-2-yl]-1,8-naphthyridin-4-amine], the IC50 was not above 1 µM.
As to `FC(F)(F)c1ccc(Nc2ccnc3nc(-c4ncccc4C(F)(F)F)ccc23)cc1` [Compound 35, N-[4-(trifluoromethyl)phenyl]-7-[3-(trifluoromethyl)pyridin-2-yl]-1,8--naphthyridin-4-amine], the IC50 was not above 1 µM.
For the compound `CCOc1cc(Nc2ccc(C(F)(F)F)cc2)c2ccc(-c3ncccc3C(F)(F)F)nc2n1` [Compound 36, 2-ethoxy-N-[4-(trifluoromethyl)phenyl]-7-[3-(trifluoromethyl)pyridin-2-yl]-1,8-naphthyridin-4-amine], the IC50 is not above 1 µM.
For `CCOc1cc(Nc2ccc(C(C)(C)C)cc2)c2ccc(-c3ncccc3C(F)(F)F)nc2n1` [Compound 37, N-(4-tert-butylphenyl)-2-ethoxy-7-[3-(trifluoromethyl)pyridin-2-yl]-1,8-naphthyridin-4-amine], the IC50 is not above 1 µM.
The same measure for `CCOc1cc(Nc2ccc(C(C)C)cc2)c2ccc(-c3ncccc3C(F)(F)F)nc2n1` [Compound 38, 2-ethoxy-N-(4-isopropylphenyl)-7-[3-(trifluoromethyl)pyridin-2-yl]-1,8-naphthyridin-4-amine]: not above 1 µM.

Source of the values: US7488740B2, “Substituted quinolin-4-ylamine analogues” (Neurogen Corporation, priority 2003, dated 2009).
